Results as given in US7994140B2, “Classes of compounds that interact with GPCRs” (Alchemia Limited, priority 2002, dated 2011).

What was measured:
MC4 = biological target: T1, MC4 (Homo sapiens, UniProt P32245); experiment: GPCR radioligand binding (RLB) assay, melanocortin MC4, [125I]NDP-αMSH
T1 construct: purchased Perkin Elmer BioSignal; host or cells: HEK 293
In short: (§1)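 Membranes from HEK 293 cells expressing the recombinant human receptor were equilibrated with [125I]SST-14 (SST5) or [125I]NDP-αMSH (MC4), then compound added for an optimized incubation. Bound ligand separated by filtration on PEI-coated glass fiber and counted by liquid scintillation.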

SST5 = biological target: T2, SST5 (Homo sapiens, UniProt P35346); experiment: GPCR radioligand binding (RLB) assay, somatostatin SST5, [125I]SST-14; conditions: for SST5 inhibition at 10 micromolar: recombinant human receptor membranes (HEK 293)
T2 construct: purchased Perkin Elmer BioSignal; host or cells: HEK 293
In short: as §1

[1] = 10 micromolar, Example Library 4
[2] = 10 micromolar compound, recombinant human receptor membranes (HEK 293)
[3] = 10 micromolar compound, Example Library 8

T1 sequence (P32245 whole entry): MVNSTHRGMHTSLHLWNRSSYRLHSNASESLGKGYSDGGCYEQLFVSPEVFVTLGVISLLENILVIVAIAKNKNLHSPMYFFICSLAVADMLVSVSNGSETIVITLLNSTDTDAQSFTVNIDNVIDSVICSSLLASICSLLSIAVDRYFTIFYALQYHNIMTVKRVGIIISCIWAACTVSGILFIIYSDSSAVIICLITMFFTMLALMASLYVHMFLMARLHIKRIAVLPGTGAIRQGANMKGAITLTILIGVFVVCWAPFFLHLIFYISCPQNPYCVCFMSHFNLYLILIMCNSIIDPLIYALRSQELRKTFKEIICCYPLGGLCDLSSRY
T2 sequence (P35346 whole entry): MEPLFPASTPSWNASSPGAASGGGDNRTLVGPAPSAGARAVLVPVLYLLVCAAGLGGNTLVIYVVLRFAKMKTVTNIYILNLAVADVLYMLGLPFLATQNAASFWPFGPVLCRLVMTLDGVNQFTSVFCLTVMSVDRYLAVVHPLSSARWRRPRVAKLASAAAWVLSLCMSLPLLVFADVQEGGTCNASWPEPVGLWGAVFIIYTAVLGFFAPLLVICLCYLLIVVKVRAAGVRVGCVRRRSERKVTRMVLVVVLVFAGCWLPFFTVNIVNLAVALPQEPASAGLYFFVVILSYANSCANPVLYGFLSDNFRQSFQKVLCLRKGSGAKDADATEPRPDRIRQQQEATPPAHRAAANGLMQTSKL

Row | Structure (SMILES) | MC4 inhibition at 10 micromolar (MC4; [1]) | SSTS inhibition at 10 micromolar (SST5; [1]) | MC4 inhibition at 10 micromolar (MC4; [2]) | SST5 inhibition at 10 micromolar (SST5; 10 micromolar compound) | SSTS inhibition at 10 micromolar (SST5; [3])
1 | COCC1OC(OCc2ccc3ccccc3c2)C(NC(=O)CCCNC(=N)N)C(OCc2ccc(-c3ccccc3)cc2)C1O (centres unmarked) [Compound 301] | + (Indicates inhibition greater than . . . 50%) | + (Indicates inhibition greater than . . . 50%) | – | – | –
2 | COCC1OC(OCc2ccc3ccccc3c2)C(NC(=O)CN)C(OCc2ccc3ccccc3c2)C1O (centres unmarked) [Compound 302] | + (Indicates inhibition greater than . . . 50%) | + (Indicates inhibition greater than . . . 50%) | – | – | –
3 | COCC1OC(OCc2ccc3ccccc3c2)C(NC(=O)CNC(=N)N)C(OCc2ccc3ccccc3c2)C1O (centres unmarked) [Compound 303] | + (Indicates inhibition greater than . . . 50%) | + (Indicates inhibition greater than . . . 50%) | – | – | –
4 | COCC1OC(OCc2ccc3ccccc3c2)C(NC(=O)CCNC(=N)N)C(OCc2ccc3ccccc3c2)C1O (centres unmarked) [Compound 305] | + (Indicates inhibition greater than . . . 50%) | + (Indicates inhibition greater than . . . 50%) | – | – | –
5 | COCC1OC(OCc2ccc3ccccc3c2)C(NC(=O)CCCNC(=N)N)C(OCc2ccc3ccccc3c2)C1O (centres unmarked) [Compound 307] | + (Indicates inhibition greater than . . . 50%) | + (Indicates inhibition greater than . . . 50%) | – | – | –
6 | CSC1OC(COC(=O)CCC2CNc3ccccc32)C(O)C(OCc2cccc(N)c2)C1NCc1ccccc1 (centres unmarked) [Compound 311] | – | – | + (Indicates inhibition greater than . . . 50%) | + (Indicates inhibition greater than . . . 50%) | –
7 | CSC1OC(COC(=O)Cc2ccccc2)C(O)C(OCc2cccc(N)c2)C1NCc1ccc(Cl)cc1 (centres unmarked) [Compound 313] | – | – | + (Indicates inhibition greater than . . . 50%) | + (Indicates inhibition greater than . . . 50%) | –
8 | CSC1O[C@H](COCc2ccccc2)[C@@H](O)[C@H](OCc2cccc(N)c2)[C@H]1NC(=O)CCC1CNc2ccccc21 (some centres unmarked) [Compound 320] | – | – | + (Indicates inhibition greater than . . . 50%) | + (Indicates inhibition greater than . . . 50%) | –
9 | CSC1O[C@H](COCc2ccc(Cl)cc2)[C@@H](O)[C@H](OCc2cccc(N)c2)[C@H]1NC(=O)Cc1c[nH]c2ccccc12 (some centres unmarked) [Compound 324] | – | – | + (Indicates inhibition greater than . . . 50%) | + (Indicates inhibition greater than . . . 50%) | –
10 | CSC1OC(COCc2cccc(N)c2)C(O)C(OCc2ccccc2)C1NC(=O)Cc1ccccc1 (centres unmarked) [Compound 327] | – | – | + (Indicates inhibition greater than . . . 50%) | + (Indicates inhibition greater than . . . 50%) | –
11 | CSC1OC(COCc2cccc(N)c2)C(O)C(OCc2ccccc2)C1NC(=O)CCC1CNc2ccccc21 (centres unmarked) [Compound 330] | – | – | + (Indicates inhibition greater than . . . 50%) | + (Indicates inhibition greater than . . . 50%) | –
12 | CSC1OC(COCc2cccc(N)c2)C(O)C(OCc2ccc(Cl)cc2)C1NC(=O)c1ccccc1 (centres unmarked) [Compound 331] | – | – | + (Indicates inhibition greater than . . . 50%) | + (Indicates inhibition greater than . . . 50%) | –
13 | CSC1O[C@H](COCc2cccc(N)c2)[C@@H](O)[C@H](OCc2ccccc2)[C@H]1NC(=O)Cc1c[nH]c2ccccc12 (some centres unmarked) [Compound 336] | – | – | + (Indicates inhibition greater than . . . 50%) | – | + (Indicates inhibition greater than . . . 50%)
14 | CSC1O[C@H](COCc2cccc(N)c2)[C@@H](O)[C@H](OCc2ccc(Cl)cc2)[C@H]1NC(=O)c1ccccc1 (some centres unmarked) [Compound 338] | – | – | + (Indicates inhibition greater than . . . 50%) | – | + (Indicates inhibition greater than . . . 50%)
15 | CSC1O[C@H](COCc2cccc(N)c2)[C@@H](O)[C@H](OCc2ccc(Cl)cc2)[C@H]1NC(=O)Cc1ccccc1 (some centres unmarked) [Compound 339] | – | – | + (Indicates inhibition greater than . . . 50%) | – | + (Indicates inhibition greater than . . . 50%)
16 | CSC1O[C@H](COCc2cccc(N)c2)[C@@H](O)[C@H](OCc2ccc(Cl)cc2)[C@H]1NC(=O)Cc1c[nH]c2ccccc12 (some centres unmarked) [Compound 341] | – | – | + (Indicates inhibition greater than . . . 50%) | – | + (Indicates inhibition greater than . . . 50%)
